Reference: PubChem BioAssay AID1963982 (Molecular Pharmacology Branch, DTP, NCI, 2024)

System: 313798-341-R-J2-PDC spheroids, viability
Experiment: Anticancer human tumor 313798-341-R-J2-PDC patient-derived cervical squamous cell carcinoma cell line growth inhibition [PI3K]
Conditions: spheroids with HUVEC and MSC; for IC50: curve of first compound; for viability, T/C: stronger effect = lower value; active = viability on the fitted dose curve at most 10% of control; inactive = the rest
Method in brief: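 Combination activity was assessed by viability in multicellular tumor spheroids carrying HUVEC and MSC components. Agents were tested with PI3K inhibitors from a Cmax-based top dose (or 10 microM) downward in half-log increments.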
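Also: spheroids exposed to compounds for seven days.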
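For viability, T/C in this document: 100% = DMSO vehicle control viability.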

C#Cc1c(F)ccc2cc(O)cc(-c3ncc4c(N5CC6CCC(C5)N6)nc(OCC56CCCN5CC(F)C6)nc4c3F)c12 (configuration not stated) + COc1c(OCCCN2CCOCC2)ccc2c3n(c(=NC(=O)c4cnc(N)nc4)nc12)CCN3
inactive: viability, T/C (second compound 0.00316 µM, first compound 0.0316 µM) 107% | viability, T/C (second compound 0.00316 µM, first compound 0.1 µM) 103% | viability, T/C (second compound 0.00316 µM, first compound 0.316 µM) 107% | viability, T/C (second compound 0.00316 µM, first compound 1 µM) 110% | viability, T/C (second compound 0.00316 µM, first compound 3.16 µM) 108% | viability, T/C (second compound 0.00316 µM, first compound 10 µM) 100% | viability, T/C (second compound 0.01 µM, first compound 0.0316 µM) 93.6% | viability, T/C (second compound 0.01 µM, first compound 0.1 µM) 106% | viability, T/C (second compound 0.01 µM, first compound 0.316 µM) 105% | viability, T/C (second compound 0.01 µM, first compound 1 µM) 108% | viability, T/C (second compound 0.01 µM, first compound 3.16 µM) 98.7% | viability, T/C (second compound 0.01 µM, first compound 10 µM) 102% | viability, T/C (second compound 0.0316 µM, first compound 0.0316 µM) 70.2% | viability, T/C (second compound 0.0316 µM, first compound 0.1 µM) 83.3% | viability, T/C (second compound 0.0316 µM, first compound 0.316 µM) 96.8% | viability, T/C (second compound 0.0316 µM, first compound 1 µM) 78.7% | viability, T/C (second compound 0.0316 µM, first compound 3.16 µM) 72.7% | viability, T/C (second compound 0.0316 µM, first compound 10 µM) 77.2% | viability, T/C (second compound 0.1 µM, first compound 0.0316 µM) 40.1% | viability, T/C (second compound 0.1 µM, first compound 0.1 µM) 47.7% | viability, T/C (second compound 0.1 µM, first compound 0.316 µM) 45.1% | viability, T/C (second compound 0.1 µM, first compound 1 µM) 42.1% | viability, T/C (second compound 0.1 µM, first compound 3.16 µM) 39.5% | viability, T/C (second compound 0.1 µM, first compound 10 µM) 32.6% | viability, T/C (second compound 0.316 µM, first compound 0.0316 µM) 17.8% | viability, T/C (second compound 0.316 µM, first compound 0.1 µM) 18.2% | viability, T/C (second compound 0.316 µM, first compound 0.316 µM) 16.7% | viability, T/C (second compound 0.316 µM, first compound 1 µM) 13.4% | viability, T/C (second compound 0.316 µM, first compound 3.16 µM) 15.3% | viability, T/C (second compound 1 µM, first compound 0.0316 µM) 9.9%
< 0.0316 µM: IC50 (second compound 0.1 µM) | IC50 (second compound 0.316 µM) | IC50 (second compound 1 µM)
> 10 µM: IC50 (second compound 0.00316 µM) | IC50 (second compound 0.01 µM) | IC50 (second compound 0.0316 µM)
active: viability, T/C (second compound 0.316 µM, first compound 10 µM) 6.87% | viability, T/C (second compound 1 µM, first compound 0.1 µM) 13.1% | viability, T/C (second compound 1 µM, first compound 0.316 µM) 12.1% | viability, T/C (second compound 1 µM, first compound 1 µM) 11.2% | viability, T/C (second compound 1 µM, first compound 3.16 µM) 8.79% | viability, T/C (second compound 1 µM, first compound 10 µM) 4.83%
